Experimental data taken from ChEMBL document CHEMBL1201862, “PubChem BioAssay data set” (2004).
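Compound exposure: 48 hours, 5 concentrations, 96-well plates. GI50 marks 50% less growth.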 The source made the active and inactive calls. Cut-off read from the data, not from the text of the source: active = GI50 up to about 1.1 µM and inactive = higher.

How the values were obtained:
Experiment in all cases: NCI anticancer screen, dose series, 48 h
COLO 205 = system: COLO 205
OVCAR-4 = system: OVCAR-4
UO-31 = system: UO-31
A549 = system: A549
LOX IMVI = system: LOX IMVI
SF-268 = system: SF-268
786-0 = system: 786-0
HCT-116 = system: HCT-116
SN12C = system: SN12C
KM12 = system: KM12
NCI-H460 = system: NCI-H460
SK-MEL-28 = system: SK-MEL-28
RXF 393 = system: RXF 393
SNB-19 = system: SNB-19
ACHN = system: ACHN
M19-MEL = system: M19-MEL
HL-60 = system: HL-60
M14 = system: M14
U-251 = system: U-251
KM-20L2 = system: KM-20L2
UACC-62 = system: UACC-62
XF498 = system: XF498
DMS-273 = system: DMS-273
LXFL 529 = system: LXFL 529
CCRF-CEM = system: CCRF-CEM
DMS-114 = system: DMS-114
EKVX = system: EKVX
SR = system: SR
SK-OV-3 = system: SK-OV-3
NCI-H522 = system: NCI-H522
A498 = system: A498
TK-10 = system: TK-10
NCI-H226 = system: NCI-H226
HCT-15 = system: HCT-15
SK-MEL-5 = system: SK-MEL-5
OVCAR-8 = system: OVCAR-8
OVCAR-5 = system: OVCAR-5
OVCAR-3 = system: OVCAR-3
SF-295 = system: SF-295
HOP-62 = system: HOP-62
UACC-257 = system: UACC-257
SNB-75 = system: SNB-75
SF-539 = system: SF-539
Malme-3M = system: Malme-3M
HT-29 = system: HT-29
DLD-1 = system: DLD-1
CAKI-1 = system: CAKI-1
SNB-78 = system: SNB-78
K562 = system: K562
HCC 2998 = system: HCC 2998
MOLT-4 = system: MOLT-4
NCI-H23 = system: NCI-H23
RPMI-8226 = system: RPMI-8226
HOP-92 = system: HOP-92
IGROV-1 = system: IGROV-1
SW-620 = system: SW-620
SK-MEL-2 = system: SK-MEL-2

Cn1cc/c(=N\N=c2/ccn(C)c3ccccc23)c2ccccc21
GI50 (COLO 205): 10.4 µM (inactive)
GI50 (OVCAR-4): 12.7 µM (inactive)
GI50 (UO-31): 13.2 µM (inactive)
GI50 (A549): 15.7 µM (inactive)
GI50 (LOX IMVI): 11.9 µM (inactive)
GI50 (SF-268): 19.3 µM (inactive)
GI50 (786-0): 16.4 µM (inactive)
GI50 (HCT-116): 11.1 µM (inactive)
GI50 (SN12C): 16.9 µM (inactive)
GI50 (KM12): 13 µM (inactive)
GI50 (NCI-H460): 12.1 µM (inactive)
GI50 (SK-MEL-28): 15.2 µM (inactive)
GI50 (RXF 393): 14.3 µM (inactive)
GI50 (SNB-19): 16.9 µM (inactive)
GI50 (ACHN): 13.9 µM (inactive)
GI50 (M19-MEL): 18.7 µM (inactive)
GI50 (HL-60): 5.78 µM (inactive)
GI50 (M14): 16.9 µM (inactive)
GI50 (U-251): 15.7 µM (inactive)
GI50 (KM-20L2): 13.1 µM (inactive)
GI50 (UACC-62): 16.2 µM (inactive)
GI50 (XF498): 14.1 µM (inactive)
GI50 (DMS-273): 16.4 µM (inactive)
GI50 (LXFL 529): 14.1 µM (inactive)
GI50 (CCRF-CEM): 6.31 µM (inactive)
GI50 (DMS-114): 14.4 µM (inactive)
GI50 (EKVX): 14.7 µM (inactive)
GI50 (SR): 16.4 µM (inactive)
GI50 (SK-OV-3): 15.7 µM (inactive)
GI50 (NCI-H522): 14.6 µM (inactive)
GI50 (A498): 18.5 µM (inactive)
GI50 (TK-10): 19.1 µM (inactive)
GI50 (NCI-H226): 11.7 µM (inactive)
GI50 (HCT-15): 15.8 µM
GI50 (SK-MEL-5): 15.9 µM (inactive)
GI50 (OVCAR-8): 14.9 µM (inactive)
GI50 (OVCAR-5): 15.8 µM (inactive)
GI50 (OVCAR-3): 11.7 µM (inactive)
GI50 (SF-295): 16.1 µM (inactive)
GI50 (HOP-62): 13.1 µM (inactive)
GI50 (UACC-257): 13.9 µM (inactive)
GI50 (SNB-75): 24.1 µM (inactive)
GI50 (SF-539): 15.9 µM (inactive)
GI50 (Malme-3M): 17.2 µM (inactive)
GI50 (HT-29): 12.7 µM (inactive)
GI50 (DLD-1): 14.7 µM (inactive)
GI50 (CAKI-1): 17.9 µM (inactive)
GI50 (SNB-78): 16.4 µM (inactive)
GI50 (K562): 4.44 µM (inactive)
GI50 (HCC 2998): 15.8 µM (inactive)
GI50 (MOLT-4): 27.1 µM (inactive)
GI50 (NCI-H23): 13.2 µM (inactive)

O=C(OCCOCCOC(=O)c1c[nH]cc1-c1ccccc1)c1c[nH]cc1-c1ccccc1
GI50 (COLO 205): 19.8 µM (inactive)
GI50 (OVCAR-4): 18.3 µM (inactive)
GI50 (UO-31): 14.1 µM (inactive)
GI50 (A549): 22.2 µM (inactive)
GI50 (LOX IMVI): 16.4 µM (inactive)
GI50 (SF-268): 15.5 µM (inactive)
GI50 (786-0): 25.9 µM (inactive)
GI50 (HCT-116): 16 µM (inactive)
GI50 (SN12C): 18.1 µM (inactive)
GI50 (RPMI-8226): 15 µM (inactive)
GI50 (KM12): 20.2 µM (inactive)
GI50 (NCI-H460): 21.2 µM (inactive)
GI50 (RXF 393): 15.4 µM (inactive)
GI50 (SNB-19): 24.3 µM (inactive)
GI50 (M19-MEL): 18.7 µM (inactive)
GI50 (HL-60): 17.9 µM (inactive)
GI50 (M14): 14.8 µM (inactive)
GI50 (U-251): 17.9 µM (inactive)
GI50 (KM-20L2): 21.9 µM (inactive)
GI50 (UACC-62): 15.9 µM (inactive)
GI50 (XF498): 19.9 µM (inactive)
GI50 (DMS-273): 15.9 µM (inactive)
GI50 (LXFL 529): 21.8 µM (inactive)
GI50 (CCRF-CEM): 23 µM (inactive)
GI50 (DMS-114): 13.8 µM (inactive)
GI50 (EKVX): 26.7 µM (inactive)
GI50 (SR): 21 µM (inactive)
GI50 (SK-OV-3): 35.1 µM (inactive)
GI50 (NCI-H522): 15.3 µM (inactive)
GI50 (A498): 19.3 µM (inactive)
GI50 (TK-10): 30.3 µM (inactive)
GI50 (HOP-92): 20.3 µM (inactive)
GI50 (NCI-H226): 19.2 µM (inactive)
GI50 (HCT-15): 19.2 µM
GI50 (SK-MEL-5): 16.8 µM (inactive)
GI50 (OVCAR-8): 29.4 µM (inactive)
GI50 (OVCAR-5): 25.8 µM (inactive)
GI50 (OVCAR-3): 22.1 µM (inactive)
GI50 (SF-295): 18.4 µM (inactive)
GI50 (HOP-62): 17.3 µM (inactive)
GI50 (UACC-257): 18.7 µM (inactive)
GI50 (SNB-75): 17.2 µM (inactive)
GI50 (SF-539): 17.9 µM (inactive)
GI50 (IGROV-1): 21.3 µM (inactive)
GI50 (Malme-3M): 18.9 µM (inactive)
GI50 (HT-29): 18.8 µM (inactive)
GI50 (DLD-1): 24.8 µM (inactive)
GI50 (CAKI-1): 26.5 µM (inactive)
GI50 (SNB-78): 19.3 µM (inactive)
GI50 (K562): 28.9 µM (inactive)
GI50 (SW-620): 28.4 µM (inactive)
GI50 (HCC 2998): 21.9 µM (inactive)
GI50 (MOLT-4): 17.9 µM (inactive)
GI50 (NCI-H23): 17.1 µM (inactive)

Clc1ccc(C[P+](c2ccccc2)(c2ccccc2)c2ccccc2)c(Cl)c1
GI50 (COLO 205): 1.16 µM (inactive)
GI50 (OVCAR-4): 4.04 µM (inactive)
GI50 (A549): 4.47 µM (inactive)
GI50 (LOX IMVI): 3.28 µM (inactive)
GI50 (SF-268): 3.94 µM (inactive)
GI50 (HCT-116): 1.63 µM (inactive)
GI50 (SN12C): 2.7 µM (inactive)
GI50 (RPMI-8226): 0.463 µM (active)
GI50 (KM12): 1.69 µM (inactive)
GI50 (NCI-H460): 2.4 µM (inactive)
GI50 (SK-MEL-28): 5.98 µM (inactive)
GI50 (RXF 393): 2.7 µM (inactive)
GI50 (SNB-19): 3.04 µM (inactive)
GI50 (ACHN): 10 µM (inactive)
GI50 (M19-MEL): 1.88 µM (inactive)
GI50 (HL-60): 0.8 µM (active)
GI50 (M14): 3.18 µM (inactive)
GI50 (U-251): 2.49 µM (inactive)
GI50 (KM-20L2): 2.61 µM (inactive)
GI50 (SK-MEL-2): 2.18 µM (inactive)
GI50 (UACC-62): 2.4 µM (inactive)
GI50 (XF498): 1.61 µM (inactive)
GI50 (DMS-273): 1.93 µM (inactive)
GI50 (LXFL 529): 1.67 µM (inactive)
GI50 (CCRF-CEM): 2.99 µM (inactive)
GI50 (DMS-114): 1.52 µM (inactive)
GI50 (EKVX): 3.44 µM (inactive)
GI50 (SR): 1.89 µM (inactive)
GI50 (SK-OV-3): 3.75 µM (inactive)
GI50 (NCI-H522): 1.67 µM (inactive)
GI50 (A498): 4.61 µM (inactive)
GI50 (TK-10): 6.52 µM (inactive)
GI50 (HOP-92): 1.71 µM (inactive)
GI50 (NCI-H226): 2.34 µM (inactive)
GI50 (HCT-15): 24 µM
GI50 (SK-MEL-5): 1.38 µM (inactive)
GI50 (OVCAR-8): 2.75 µM (inactive)
GI50 (OVCAR-5): 2.37 µM (inactive)
GI50 (OVCAR-3): 2.58 µM (inactive)
GI50 (SF-295): 3.08 µM (inactive)
GI50 (HOP-62): 2.79 µM (inactive)
GI50 (UACC-257): 1.04 µM (active)
GI50 (SNB-75): 2.77 µM (inactive)
GI50 (SF-539): 3.06 µM (inactive)
GI50 (IGROV-1): 1.87 µM (inactive)
GI50 (Malme-3M): 3.87 µM (inactive)
GI50 (HT-29): 1.66 µM (inactive)
GI50 (SNB-78): 3.42 µM (inactive)
GI50 (SW-620): 2.94 µM (inactive)
GI50 (HCC 2998): 3.47 µM (inactive)
GI50 (MOLT-4): 3.3 µM (inactive)
GI50 (NCI-H23): 2.89 µM (inactive)
